In one experiment the test system is proteasome. The settings on record: inhibition of the proteasome; Nawaz et al. 1999 and others; cited from earlier work.
The test system of the next experiment is MCF-7 cells. Briefly: Immunoprecipitation (G20 antibody) and Western blot of the endogenous ER-alpha degradation peptide in conditioned medium of treated MCF-7 cells. The class given is cell-based, human. To be noted: conditioned medium of MCF-7 cells; estradiol 10^-8M, diethylstibestrol 10^-8M, 4-OHTamoxifen 10^-7M, Fulvestrant 10^-7M; vs control; FIG. 3; preliminary. The procedure: MCF-7 breast cancer cell line was cultured for 48 hours in EMEM without Phenol-red, comprising 2 mM glutamine, 100 U/ml penicilline and 100 μg/ml streptomycine, supplemented with 10% steroid-free fetal calf serum. After three washing steps with serum/antibiotic-free EMEM without Phenol-red, the cells were cultured for 4 hours in the presence or absence of the E2 ligand dissolved in serum/antibiotic-free EMEM without Phenol-red, containing only 2 mM glutamine.
After preclearing with 100 μl (50%) immobilised protein G on agarose beads (UltraLink®, Pierce) (2 hours at 4° C.) conditioned media (or EMEM for the negative control) were incubated with antibody G20 (Santa-Cruz) (except for the negative control) overnight at 4° C. After antibody capturing in 100 μl (50%) immobolised proteine G, the resin is heated to 85° C. for 5 minutes in Laemmli without colorant. The protein samples are subsequently separated on a Tris-Tricine 10% (Invitrogen) gel and the peptides are transferred to nitro-cellulose membranes (15% methanol; semi-dry transfer (BioRad apparatus; 24 V; 0.15 mA, 15 minutes). After blocking with 5% milk for 30 minutes, the proteins are detected with chemiluminescence (primary antibody: G20 (1/500; 2 hours); secondary antibody: anti-rabbit (Pierce; 1/6000; 1 hour). […]
In general terms: A western blot detects proteins with antibodies after separation by electrophoresis.

The test system of experiment [1] is MCF-7 breast cancer cell line. Description: MCF-7 cell growth with synthetic peptides, crystal violet staining. The class given is cell-based, human. The settings on record: 10^-5M, 72 hours, EMEM with 10% charcoal-stripped serum, vs control, FIG. 4. The procedure: In order to provide a proof of principle that secretion of the ER-alpha breakdown product/peptide described here could relay or amplify the effect of estradiol toward the proliferation of ER-alpha-positive cells, we have treated MCF-7 cells with a synthetic peptide corresponding to this sequence (SEQ ID NO:2) and containing its post-translational modifications (FIG. 4). ER-alpha-positive MCF-7 breast cancer cell line were seeded in 96-well plates (3000 cells/well). Cells were then treated with or without (control) ER-alpha-17p or the SEQ ID NO:2 peptide both at 10^−5M for 72 hours. Cell growth was measured by crystal violet staining. Briefly, cell cultures were gently washed once with PBS, fixed with 1% glutaraldehyde in PBS (15 min, room temperature) and stained with 0.1% crystal violet (w/v in ddH2O; 30 min, room temperature). After removal of excess dye by rinsing under gently running tap water, cell-bound crystal violet was extracted with 1% Triton X-100 (v/v in ddH2O; room temperature, under agitation) and measured by spectrometry at 550 nm.

Experiment [2] concerns the target T1, purified recombinant human ER-alpha (Homo sapiens, UniProt P03372).
T1 sequence (P03372 1-595): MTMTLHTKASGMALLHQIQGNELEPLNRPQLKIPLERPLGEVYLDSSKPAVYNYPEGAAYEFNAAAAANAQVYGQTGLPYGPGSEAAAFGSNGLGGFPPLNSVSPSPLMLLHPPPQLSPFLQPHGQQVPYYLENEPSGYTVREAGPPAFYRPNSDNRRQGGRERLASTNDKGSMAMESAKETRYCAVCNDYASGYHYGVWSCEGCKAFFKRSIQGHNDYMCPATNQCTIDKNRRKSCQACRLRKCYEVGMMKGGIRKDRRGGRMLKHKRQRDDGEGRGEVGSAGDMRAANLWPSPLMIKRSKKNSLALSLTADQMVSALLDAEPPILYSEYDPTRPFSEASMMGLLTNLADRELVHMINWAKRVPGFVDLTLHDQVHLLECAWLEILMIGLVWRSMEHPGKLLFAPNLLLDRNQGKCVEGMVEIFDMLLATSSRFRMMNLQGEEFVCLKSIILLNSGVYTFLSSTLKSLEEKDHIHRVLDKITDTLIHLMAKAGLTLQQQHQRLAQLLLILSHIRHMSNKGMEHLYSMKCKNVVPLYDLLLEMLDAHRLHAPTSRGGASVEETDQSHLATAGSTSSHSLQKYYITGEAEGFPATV
To be noted: Gallo et al. 2007; cited from earlier work.

A further experiment concerns ER-alpha receptor. The settings on record: competition with synthetic peptide; Gallo et al. 2007; cited from earlier work.
The subject of experiment [3] is breast cancer cell lines that are ER-alpha-positive. To be noted: Gallo et al. 2007, 2008; cited from earlier work.
A further experiment relates to ER-alpha. Briefly: ERE-driven luciferase reporter assay in MVLN cells. The settings on record: 10^-5M, 6 hours, serum free, FIG. 6, preliminary. The format is cell-based, human. The text has this:
In order to provide a proof of principle that secretion of the ER-alpha breakdown product/peptide described here could relay or amplify the effect of estradiol toward ER-alpha transcriptional activity, we have treated MVLN cells (MCF-7 stably transfected with an ERE-driven luciferase reporter gene; Pons et al., Biotechniques 1990; 9:450-459) with a synthetic peptide corresponding to this sequence (SEQ ID NO:2) and containing its post-translational modifications in serum free condition (FIG. 6).
MVLN cells were cultured for 48 hours in EMEM containing 10% of charcoal-stripped serum prior treatment with E2 at 10^−10 M or ER-alpha-17p or SEQ ID NO:2 both at 10^−5M for. After 6 h treatment in serum free condition, cells were washed 2 times with PBS. Luciferase activity was then measured in cell lysates by luminometry using Luciferase Assay System (Promega) according to manufacturer instructions.

Residues, ends and D or L forms follow the SMILES beside them. No end group written: not given here. *: point of attachment. Cbz = O=C(OCc1ccccc1)*

Regarding `CC(C)C[C@@H](C=O)NC(=O)[C@H](CC(C)C)NC(=O)[C@H](CC(C)C)NC(=O)OCc1ccccc1` [MG-132] (Cbz-Leu-Leu-Leu-aldehyde), in the experiment with proteasome, the ER-alpha-dependent transcription result is recorded as “diminishes ER-alpha-dependent transcription”.
For the compound `CC(=O)N[C@@H](CSC(=O)[C@]1([C@@H](O)C(C)C)NC(=O)[C@H](C)[C@@H]1O)C(=O)O` [lactacystine], the ER-alpha-dependent transcription result in the experiment on proteasome is given as “diminishes ER-alpha-dependent transcription”.
With `C[C@]12CC[C@@H]3c4ccc(O)cc4C[C@@H](CCCCCCCCC[S+]([O-])CCCC(F)(F)C(F)(F)F)[C@H]3[C@@H]1CC[C@@H]2O` (some centres unmarked) [Fulvestrant], the “production of the endogenous ER-alpha degradation product/peptide” value with MCF-7 cells was “decrease its production”.
As for “P295LMIKRSKK303NSLALSLT311 (PLMIKRSKK(Me)NSLALSLT; listed as Homo Sapiens) [ER-alpha-17p]”, in experiment [1], the “MCF-7 cell proliferation (growth)” value is recorded as “capable of inducing proliferation of cancer cells”. Further, the “binding to purified recombinant human ER-alpha” value in experiment [2] is “binds to purified recombinant human ER-alpha”. Moreover, the “transcriptional activity of the ER-alpha receptor” value with ER-alpha receptor is given as “increased transcriptional activity”. Besides, the “proliferation of ER-alpha-positive breast cancer cell lines” value in experiment [3] is “increased proliferation”.
Turning to `CC/C(=C(\c1ccc(O)cc1)c1ccc(OCCN(C)C)cc1)c1ccccc1` [4-OHTamoxifen], in the experiment with MCF-7 cells, the “production of the endogenous ER-alpha degradation product/peptide” value is reported as “decrease its production”.
For “K268RQRDDGEGRGEVGSAGDMRAANLWPSPLMIKRSKKNSLALSLT311 (KRQRDDGEGRGEVGSAGDMRAANLWPSPLMIKRSKKNSLALSLT; listed as Homo Sapiens) [SEQ ID NO:2, endogenous 44-residue ER-alpha degradation peptide K268-T311]”, the “MCF-7 cell proliferation (growth)” value in experiment [1] (listed as ER-alpha-44p) is reported as “capable of inducing proliferation of cancer cells”; in experiment [1] (listed as SED ID NO:2), “significant increase of their proliferation higher that the control ER-alpha-17p peptide”. For the same compound, the “ER-alpha transcriptional activity (luciferase)” value in the experiment with ER-alpha is given as “significant increase of the ER-alpha transcriptional activity higher than the control ER-alpha-17p peptide”.

The values are drawn from patent publication US20130224285A1, “ESTROGEN RECEPTOR ALPHA POLYPEPTIDE SEQUENCE, DIAGNOSTIC AND THERAPEUTIC APPLICATIONS THEREOF” (Universite Libre de Buxelles, priority 2010, published 2013).
